# Laboratory results: patent publication US12263172B2, “Toll-like receptor agonists for use in the treatment of hepatitis b” (priority 2019, dated 2025)
# Like-named read-outs stand apart in the source and are kept apart here.
# Experiments:
# [1] = 14- and 28-day toxicity study in monkeys; type: in vivo; conditions: 3, 15, and 100 mg/kg biw
# Excerpt: (§1) Exposure increased more than dose-proportionally at low doses. Variability in exposure was high. • In vitro plasma protein binding was between 79.6% and 94.2% in animals and humans. Volume of distribution after intravenous dosing was high. […] Main metabolic pathways were oxygenation, hydrogenation, dehydrogenation, dealkylation, acetylation, glucuronidation, and/or glutathione conjugation. • In rats, >80% of drug-related material was found in feces, 11% to 20% in bile, and <4% in urine. […] There were no effects on embryofetal development up to 1 mg/kg/dose in rats and 30 mg/kg/dose in rabbits.
# [2] = tested on: cytokines and ISGs (ISG15, MX1, OAS1); test: Phase 1 multiple dose pharmacodynamics in healthy adults; type: in vivo, human; conditions: 1.25 mg qw
# Description: Serum levels of IFN-α were measured by ELISA. Serum levels of IP-10, IFN-γ, TNF-α, IL-12 (subunit P40), IL-6, IL-1β, IL-1RA, IL-18, MCP-1, MIP-1β, G-CSF, GM-CSF, IL-10, IL-15 were measured by Luminex xMAP technology. The LLOQ for IFN-α was determined at 12.5 pg/mL and at 25 pg/mL for all other cytokines measured. Fold changes for each of the cytokines were calculated compared to predose values or LLOQ-1 values if predose values were below LLOQ.
# IFN-stimulated gene (ISG) expression analysis was conducted for 3 genes, ISG15, MX1, and OAS1, using quantitative polymerase chain reaction (qPCR) on collected whole blood samples. For the ISGs, relative fold changes from baseline were calculated according to the delta delta Cycle threshold (Ct) method (2^[Delta Delta Ct]). Assessments were done for Part 1 predose and postdose: 1.5 hours, 6 hours, 12 hours (Day 1), 24 hours (day 2), 48 hours (Day 3), 96 hours (Day 5), follow-up Week 2. For the Part 2, assessments were done predose and post the first and fourth dose: 2 hours, 4 hours, 12 hours, 24 hours, 48 hours, 96 hours and one week follow-up; and post the second and third doses: 12 hours and 48 hours.
# [3] = target: T1, organic ion transporter 2 (OCT2) (Homo sapiens, UniProt O15244); test: OCT2 inhibition in vitro; type: in vitro ADME
# T1 sequence (O15244 1-555): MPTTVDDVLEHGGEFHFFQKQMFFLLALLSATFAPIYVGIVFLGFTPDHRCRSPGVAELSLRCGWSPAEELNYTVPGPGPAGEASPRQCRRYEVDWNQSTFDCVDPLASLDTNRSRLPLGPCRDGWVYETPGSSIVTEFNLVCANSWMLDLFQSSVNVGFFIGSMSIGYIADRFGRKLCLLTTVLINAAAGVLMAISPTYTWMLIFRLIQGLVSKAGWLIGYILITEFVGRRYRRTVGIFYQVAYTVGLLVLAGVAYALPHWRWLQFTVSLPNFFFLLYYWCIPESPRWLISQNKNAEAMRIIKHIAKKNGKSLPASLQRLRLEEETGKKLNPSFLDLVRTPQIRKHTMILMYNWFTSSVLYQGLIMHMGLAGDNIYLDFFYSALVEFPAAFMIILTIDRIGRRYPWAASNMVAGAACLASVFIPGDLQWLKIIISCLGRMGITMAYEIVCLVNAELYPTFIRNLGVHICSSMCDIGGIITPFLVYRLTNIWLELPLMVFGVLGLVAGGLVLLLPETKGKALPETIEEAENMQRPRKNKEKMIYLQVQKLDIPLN
# Excerpt: as §1
# genotoxic potential = test: genotoxic potential
# Excerpt: as §1
# [4] = embryofetal development in rats; type: in vivo
# Excerpt: as §1
# [5] = Phase 1 multiple dose pharmacokinetics in healthy adults; type: in vivo, human
# Description: Following a single dose of Compound 4, intensive blood samples were collected over the first 24 hours, samples were then collected daily through Day 7, and weekly samples were collected through Day 35. Plasma concentrations of Compound 4 were evaluated using a validated liquid chromatography with tandem mass spectrometry method; the lower limit of quantification was 1 pg/mL. PK parameters were estimated using non-compartmental analysis (WinNonlin®, Certara, Princeton, NJ, USA). Descriptive statistics were used to summarize plasma concentrations and derived PK parameters of Compound 4. The impact of food on PK parameters was analyzed using geometric least square mean point estimates (mixed-effects model on log-transformed values with treatment as fixed effect and subject as a random effect).
# Compound 4 was administered every week for 4 weeks in fasted condition at a dose of 1.25 mg.
# [6] = respiratory and central nervous system safety pharmacology in rats; conditions: rat, in vivo
# Excerpt: as §1
# [7] = tested on: interferon-stimulated genes (ISGs) and cytokines in peripheral blood; test: single oral administration in monkeys: tolerability, ISG and cytokine induction; type: in vivo
# Excerpt: as §1
# [8] = in vitro permeability and P-glycoprotein substrate; type: in vitro ADME
# Excerpt: as §1
# P-glycoprotein = P-glycoprotein (Homo sapiens, UniProt P08183); test: in vitro permeability and P-glycoprotein substrate; type: in vitro ADME
# P-glycoprotein, sequence (P08183 whole entry): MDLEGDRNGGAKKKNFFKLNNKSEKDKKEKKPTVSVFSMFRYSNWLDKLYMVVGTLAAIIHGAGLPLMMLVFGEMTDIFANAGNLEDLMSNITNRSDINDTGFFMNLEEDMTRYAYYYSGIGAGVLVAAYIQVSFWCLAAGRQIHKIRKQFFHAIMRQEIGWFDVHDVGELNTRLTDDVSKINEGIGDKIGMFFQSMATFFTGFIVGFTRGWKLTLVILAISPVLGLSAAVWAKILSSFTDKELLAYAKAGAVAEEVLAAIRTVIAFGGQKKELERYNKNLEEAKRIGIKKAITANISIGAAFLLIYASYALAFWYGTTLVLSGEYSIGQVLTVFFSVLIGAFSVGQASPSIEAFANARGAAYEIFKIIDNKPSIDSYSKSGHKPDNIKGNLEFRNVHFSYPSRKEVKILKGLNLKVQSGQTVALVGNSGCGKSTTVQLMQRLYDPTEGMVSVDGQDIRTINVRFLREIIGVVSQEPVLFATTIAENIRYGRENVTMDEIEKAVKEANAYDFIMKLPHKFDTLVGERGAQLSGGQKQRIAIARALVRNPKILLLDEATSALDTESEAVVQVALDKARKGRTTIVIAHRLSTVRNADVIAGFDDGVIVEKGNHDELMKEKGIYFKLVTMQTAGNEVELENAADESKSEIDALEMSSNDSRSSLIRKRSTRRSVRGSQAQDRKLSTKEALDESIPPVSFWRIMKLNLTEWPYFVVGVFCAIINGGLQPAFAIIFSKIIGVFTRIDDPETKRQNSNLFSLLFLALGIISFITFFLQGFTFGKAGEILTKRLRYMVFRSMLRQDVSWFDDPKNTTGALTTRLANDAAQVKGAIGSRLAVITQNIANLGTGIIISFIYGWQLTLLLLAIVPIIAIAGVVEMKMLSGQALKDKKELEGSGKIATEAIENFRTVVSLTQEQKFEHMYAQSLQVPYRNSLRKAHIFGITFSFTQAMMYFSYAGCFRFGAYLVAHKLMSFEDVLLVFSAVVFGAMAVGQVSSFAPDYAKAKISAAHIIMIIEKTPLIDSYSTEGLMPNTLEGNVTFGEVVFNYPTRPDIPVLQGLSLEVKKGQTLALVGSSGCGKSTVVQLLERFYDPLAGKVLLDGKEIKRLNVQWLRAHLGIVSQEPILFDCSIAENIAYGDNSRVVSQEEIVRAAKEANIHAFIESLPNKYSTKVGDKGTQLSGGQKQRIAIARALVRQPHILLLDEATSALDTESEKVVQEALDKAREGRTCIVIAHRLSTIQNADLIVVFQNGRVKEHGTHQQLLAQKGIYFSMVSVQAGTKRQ
# Excerpt: as §1
# CYP3A4 = CYP3A4 (Homo sapiens, UniProt P08684); test: CYP3A4 substrate and inhibition; type: in vitro ADME
# CYP3A4, sequence (P08684 whole entry): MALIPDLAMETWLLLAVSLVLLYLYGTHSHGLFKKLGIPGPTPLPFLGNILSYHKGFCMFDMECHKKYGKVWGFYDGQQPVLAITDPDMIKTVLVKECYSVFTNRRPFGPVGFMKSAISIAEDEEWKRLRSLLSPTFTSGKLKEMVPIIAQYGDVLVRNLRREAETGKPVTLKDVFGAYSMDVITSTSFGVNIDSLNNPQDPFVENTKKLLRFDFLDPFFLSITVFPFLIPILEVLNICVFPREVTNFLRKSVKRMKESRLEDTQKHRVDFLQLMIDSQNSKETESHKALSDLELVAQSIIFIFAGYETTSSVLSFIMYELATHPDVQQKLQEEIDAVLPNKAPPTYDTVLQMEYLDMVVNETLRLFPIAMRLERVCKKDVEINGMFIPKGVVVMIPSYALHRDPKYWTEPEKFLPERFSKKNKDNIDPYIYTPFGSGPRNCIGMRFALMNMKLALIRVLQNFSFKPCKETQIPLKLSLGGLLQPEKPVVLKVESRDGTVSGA
# Excerpt: as §1
# BCS classification = type: physicochemical; conditions: high solubility, low permeability
# Description: AUC48h was approximately 17% (95% Cl: 65.89-105.71%) lower in fed condition compared with fasted. These differences are aligned with BCS Class 3 (high solubility, low permeability) compound properties.
# [9] = cardiovascular safety pharmacology in monkeys; type: in vivo; conditions: secondary to an increase in body temperature
# Excerpt: as §1
# [10] = off-target liabilities in vitro; conditions: read-out: lowest IC50 for off-target liabilities
# Excerpt: as §1
# [11] = pharmacokinetics and metabolism in animals; type: in vivo, rats and monkeys
# Excerpt: as §1
# [12] = 12 hours after the second administration
# [13] = after 4 weeks of qw dosing, 1.25 mg
smiles,measurement,setting,value
CCCCOc1nc(N)c2[nH]cc(Cc3ccc(CN4CCCC4)cc3)c2n1 [Compound 4],brain inflammation,[1],Brain inflammation occurred
same,IFN-α or IP-10 levels before the subsequent dose,[2],values returned to baseline before administration of the subsequent dose
same,PD responses after the last dose compared to the first dose,[2],No enhanced induction of PD responses as well as no evidence for tachyphylaxis
same,fold increase of IFN-α in the subject with cotton wool spots,[2]; [12],8.4 fold
same,maximum IFN-α level in the subject with cotton wool spots,[2]; [12],97 pg/mL
same,IC50,[3],4970 nM
same,genotoxic potential,genotoxic potential,free of genotoxic potential
same,post-implantation loss and fetal weights,"[4]; pregnant rats, 3 mg/kg biw",Post-implantation loss and fetal weights effects were noted
same,dose without effects on embryofetal development,[4]; rats,up to 1 mg/kg/dose
same,excreted as unchanged drug in urine within the first 24 hours after the first and second dosing,[5]; 1.25 mg qw fasted,Less than 0.22%
same,"terminal elimination, median value",[5]; 1.25 mg qw fasted,244 h
same,mean accumulation ratio for AUC24h,[5]; [13],1.83
same,mean accumulation ratio for AUC72h,[5]; [13],2.27
same,mean accumulation ratio for AUCT,[5]; [13],2.75
same,Cmax,"[5]; human, plasma, oral, 1.25 mg, 1.25 mg qw fasted, SD 67.2, read-out: mean Cmax after the fourth dose",0.235 ng/mL
same,Cmax,"[5]; human, plasma, oral, 1.25 mg, 1.25 mg qw fasted, SD 88.4, read-out: mean Cmax after the first dose",0.186 ng/mL
same,AUC,"[5]; human, plasma, oral, 1.25 mg, 1.25 mg qw fasted, SD 591, read-out: mean AUC24h after the fourth dose",1.76 ng·h/mL
same,AUC,"[5]; human, plasma, oral, 1.25 mg, 1.25 mg qw fasted, SD 874, read-out: mean AUC24h after the first dose",1.21 ng·h/mL
same,concentration at 21 days,"[5]; human, plasma, oral, 1.25 mg qw fasted, read-out: mean Ctrough before the fourth dose",0.0408 ± 0.0489 ng/mL
same,concentration at 7 days,"[5]; human, plasma, oral, 1.25 mg qw fasted, read-out: mean Ctrough before the second dose",0.00717 ± 0.0032 ng/mL
same,effects on respiratory or central nervous system parameters,[6],no relevant effects
same,"cytokine induction (IFN-α, IP-10, IL-1 RA, MCP-1)",[7]; 0.6 mg/kg,induction of 4 of the 14 cytokines tested
same,cytokine induction,[7]; 0.1 and 0.15 mg/kg,only increases in IP-10 were detected
same,"ISG15, MX1 and OAS1 in peripheral blood","[7]; each dose, 12-24 hours postdose",increase in all 3 major interferon-stimulated genes
same,dose for which the LEC was observed (minimal target engagement),"[7]; monkey, in vivo",0.1 mg/kg
same,tolerability,"[7]; single oral 0.05, 0.1, 0.15 and 0.6 mg/kg",well tolerated
same,in vitro permeability,[8],low
same,P-glycoprotein substrate,P-glycoprotein,P-glycoprotein substrate
same,CYP3A4 substrate,CYP3A4,substrate
same,IC50,CYP3A4,590 nM
same,BCS class,BCS classification,BCS Class 3
same,heart rate and arterial blood pressure,[9],transient increase in heart rate and arterial blood pressure
same,IC50,[10],≥ 1970 nM
same,blood clearance,[11]; in vivo,moderate
same,volume of distribution,[11]; intravenous dosing,high
same,tissue distribution,[11]; oral dosing in rats and monkeys,"highest levels in liver, small intestines and brain"
same,half-life,"[11]; rat, monkey, in vivo",5 to 14 h
same,Tmax,"[11]; rat, monkey, in vivo, oral dosing",0.8 to 2 h
